Source: PubChem BioAssay AID2060623 (Molecular Pharmacology Branch, DTP, NCI, 2025)
“And” between values parts separate entries of the source, which are not always exact repeats. Identical values can stand only once.

System: 227483-062-R1-J1-PDC complex spheroids with HUVEC/MSC, viability
Experiment: Anticancer human tumor 227483-062-R1-J1-PDC patient-derived pancreatic carcinoma cell line growth inhibition [CLK]
Settings: for viability, T/C: stronger effect = lower value
Text: A high-throughput screen of multi-cell type tumor spheroids was designed to identify active combinations of […] and targeted small molecules. Complex spheroids include a stromal component modeled by human endothelial cells (HUVEC) and fibroblasts modeled by human mesenchymal stem cells (MSCs). The concentration ranges selected for each drug and investigational agent were based upon clinically achievable concentrations if the clinical Cmax of the agent was known.
Compounds. The drugs and investigational agents: cirtuvivint (SM08502; NSC835563), CC-671 (NSC850746), vemurafenib (NSC761431), tapotoclax (NSC804041), sotorasib (NSC818433), adagrasib (NSC831453), MRTX-1133 (NSC836407), BAY2416964 (NSC825713), copanlisib (NSC816437), inavolisib (NSC800729), abemaciclib (NSC768073), osimertinib (NSC779217), entinostat (NSC756642), eltanexor (KPT-8602, NSC794443), venetoclax (NSC766270), ceralasertib (NSC777638), bortezomib (NSC756655), olaparib (NSC753686), talazoparib (NSC767125), alisertib (NSC759677), peposertib (NSC802822), gemcitabine (NSC613327), 5-fluorouracil (NSC19893), SN-38 (NSC673596), oxaliplatin (NSC266046), paclitaxel (NSC125973), and doxorubicin (NSC123127), were obtained from the National Cancer Institute (NCI) Developmental Therapeutics Program Chemical Repository. The FDA-approved anticancer drug set is available from the Developmental Therapeutics Program at https://dtp.cancer.gov/organization/dscb/obtaining/available plates.htm. […] The stock solutions were prepared in dimethyl sulfoxide (DMSO, Sigma-Aldrich, St. Louis, MO, cat. D2650), except for the platinum complexes which were prepared in saline (Quality Biological, Gaithersburg, MD, cat. 114-055-101), at 800-fold the tested concentration and stored at -70 degrees C prior to their use. All drugs and investigational agents were tested over a range starting from a high concentration at or near the clinical Cmax and decreasing in half-log increments. If the clinical Cmax for an agent had not been determined, the highest concentration tested was 10 microM.
Cell Culture. All cells were maintained in an incubator at 37 degrees C and 5% CO2 with 95% humidity. The PDC lines were cultured according to standard operating procedures established by the NCI PDMR. Briefly, all PDCs were thawed and cultured in Matrigel-coated flasks prepared with a working solution of 1X Ham's F-12 nutrient mix, without supplementation (Invitrogen, Waltham, MA, cat. 11765054), 100 U/mL penicillin-streptomycin (Invitrogen, cat. 15140122), and 2.5% Matrigel (Corning Inc., Corning, NY, cat. 354248) for the first three passages. The 947758-054-R-J2-PDC line was cultured in 6B/Colon 1A media, which includes advanced DMEM/F-12 (Thermo Fisher Scientific, cat. 12634028), 10 mM HEPES (Thermo Fisher Scientific, cat. 15630080), 1X GlutaMAX supplement (Thermo Fisher Scientific, cat. 35050061), 0.1 mg/mL primocin (InvivoGen, cat. ant-pm-2), 10% defined fetal bovine serum, heat inactivated (HyClone Laboratories Inc., cat. SH30070.03HI), 1.25 mM N-Acetyl-L-cysteine (Sigma-Aldrich, cat. A9165), 10 mM nicotinamide (Sigma-Aldrich, cat. N0636), 1X B-27 supplement (Thermo Fisher Scientific, cat. 17504044), 1X N-2 supplement (Thermo Fisher Scientific, cat. 17502048), and 10 microM Y-27632 dihydrochloride (Tocris Bioscience, cat. 1254). The 876862-298-R-J1-PDC was cultured in 6E media, which includes all 6B/Colon 1A media components plus 50% L-WRN conditioned media (ATCC, cat. CRL-3276), 50 ng/mL recombinant human EGF recombinant protein (hEGF; Thermo Fisher Scientific, cat. PHG0311), 10 ng/mL recombinant human fibroblast growth factor 10 (hGFG-10; PeproTech, cat. 100-26), 1 ng/mL recombinant human fibroblast growth factor 2 (hFGF-2; PeproTech, cat. 100-18B), and 1 µM prostaglandin E2 (PGE2; Tocris, cat. 2296). The 227483-062-R1-J1-PDC line was cultured in Panc media, containing all 6E components except hFGF-2, with the addition of 500 nM SB-431542 (Selleckchem, cat. S1067) and 10 nM gastrin (Tocris, cat. 3006). […]
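Also: spheroids exposed to compounds for seven days before readout.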
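For viability, T/C in this document: percent of DMSO vehicle control luminescence as 100% viability.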

Structure (SMILES): CC(CO)NC(=O)c1cc(-c2ccc(Cl)cc2)nn(-c2cnn(C)c2)c1=O (stereo not given)
- viability, T/C (compound 0.0316 µM): 100% and 88.3%
- viability, T/C (compound 0.1 µM): 106% and 97.9%
- viability, T/C (compound 0.316 µM): 95% and 100%
- viability, T/C (compound 1 µM): 113% and 88.8%
- viability, T/C (compound 3.16 µM): 88.7% and 108%
- viability, T/C (compound 10 µM): 90.4% and 87%
- IC50 (curve of compound): > 10000 nM

Structure (SMILES): C=CC(=O)Nc1cc(Nc2nccc(-c3cn(C)c4ccccc34)n2)c(OC)cc1N(C)CCN(C)C
- viability, T/C (compound 0.000949 µM): 99.8% and 83%
- viability, T/C (compound 0.003 µM): 104% and 92.1%
- viability, T/C (compound 0.00949 µM): 103% and 119%
- viability, T/C (compound 0.03 µM): 113% and 109%
- viability, T/C (compound 0.0949 µM): 95.1% and 102%
- viability, T/C (compound 0.3 µM): 84.3% and 81.2%
- IC50 (curve of compound): > 300 nM

Structure (SMILES): Cn1ncnc1[C@H]1c2n[nH]c(=O)c3cc(F)cc(c23)N[C@@H]1c1ccc(F)cc1
- viability, T/C (compound 0.000316 µM): 93.6% and 98%
- viability, T/C (compound 0.001 µM): 127% and 115%
- viability, T/C (compound 0.00316 µM): 91.9% and 102%
- viability, T/C (compound 0.01 µM): 120% and 97%
- viability, T/C (compound 0.0316 µM): 110% and 101%
- viability, T/C (compound 0.1 µM): 104% and 98%
- IC50 (curve of compound): > 100 nM

Structure (SMILES): CCc1c2c(nc3ccc(O)cc13)-c1cc3c(c(=O)n1C2)COC(=O)[C@]3(O)CC + CN1CCN(c2cc(C(=O)Nc3cc4cc(-c5cnn(C)c5)ccc4cn3)ccn2)CC1
- IC50 (curve of first compound, second compound 0.0316 µM): 276 nM
- IC50 (curve of first compound, second compound 0.1 µM): 12.9 nM
- IC50 (curve of first compound, second compound 0.316 µM): < 3.16 nM
- IC50 (curve of first compound, second compound 1 µM): < 3.16 nM
- IC50 (curve of first compound, second compound 3.16 µM): < 3.16 nM
- IC50 (curve of first compound, second compound 10 µM): < 3.16 nM
- viability, T/C (second compound 0.0316 µM, first compound 0.00316 µM): 96.7%
- viability, T/C (second compound 0.0316 µM, first compound 0.01 µM): 99%
- viability, T/C (second compound 0.0316 µM, first compound 0.0316 µM): 74.9%
- viability, T/C (second compound 0.0316 µM, first compound 0.1 µM): 62%
- viability, T/C (second compound 0.0316 µM, first compound 0.316 µM): 52.1%
- viability, T/C (second compound 0.0316 µM, first compound 1 µM): 32.5%
- viability, T/C (second compound 0.1 µM, first compound 0.00316 µM): 58.4%
- viability, T/C (second compound 0.1 µM, first compound 0.01 µM): 53.1%
- viability, T/C (second compound 0.1 µM, first compound 0.0316 µM): 38.7%
- viability, T/C (second compound 0.1 µM, first compound 0.1 µM): 38.1%
- viability, T/C (second compound 0.1 µM, first compound 0.316 µM): 25.4%
- viability, T/C (second compound 0.1 µM, first compound 1 µM): 8.95%
- viability, T/C (second compound 0.316 µM, first compound 0.00316 µM): 3.53%
- viability, T/C (second compound 0.316 µM, first compound 0.01 µM): 4.77%
- viability, T/C (second compound 0.316 µM, first compound 0.0316 µM): 3.57%
- viability, T/C (second compound 0.316 µM, first compound 0.1 µM): 4.05%
- viability, T/C (second compound 0.316 µM, first compound 0.316 µM): 1.85%
- viability, T/C (second compound 0.316 µM, first compound 1 µM): 0.98%
- viability, T/C (second compound 1 µM, first compound 0.00316 µM): 1.32%
- viability, T/C (second compound 1 µM, first compound 0.01 µM): 1.1%
- viability, T/C (second compound 1 µM, first compound 0.0316 µM): 1.61%
- viability, T/C (second compound 1 µM, first compound 0.1 µM): 1.38%
- viability, T/C (second compound 1 µM, first compound 0.316 µM): 2.57%
- viability, T/C (second compound 1 µM, first compound 1 µM): 2.01%
- viability, T/C (second compound 3.16 µM, first compound 0.00316 µM): 4.99%
- viability, T/C (second compound 3.16 µM, first compound 0.01 µM): 2.04%
- viability, T/C (second compound 3.16 µM, first compound 0.0316 µM): 2.02%
- viability, T/C (second compound 3.16 µM, first compound 0.1 µM): 2.48%
- viability, T/C (second compound 3.16 µM, first compound 0.316 µM): 5.26%
- viability, T/C (second compound 3.16 µM, first compound 1 µM): 2.04%
- viability, T/C (second compound 10 µM, first compound 0.00316 µM): 1.98%
- viability, T/C (second compound 10 µM, first compound 0.01 µM): 1.03%
- viability, T/C (second compound 10 µM, first compound 0.0316 µM): 0.86%
- viability, T/C (second compound 10 µM, first compound 0.1 µM): 2.28%
- viability, T/C (second compound 10 µM, first compound 0.316 µM): 0.94%
- viability, T/C (second compound 10 µM, first compound 1 µM): 0.92%

Structure (SMILES): CC1COCCN1c1cc(C2(S(C)(=N)=O)CC2)nc(-c2ccnc3[nH]ccc23)n1 (stereo not given)
- viability, T/C (compound 0.0316 µM): 98% and 93.4%
- viability, T/C (compound 0.1 µM): 93.6% and 101%
- viability, T/C (compound 0.316 µM): 89.4% and 103%
- viability, T/C (compound 1 µM): 110% and 109%
- viability, T/C (compound 3.16 µM): 86.9% and 78.7%
- viability, T/C (compound 10 µM): 62.2% and 53.5%
- IC50 (curve of compound): > 10000 nM
